Test results from US11213510B2, “Thioindirubins” (City of Hope, priority 2017, dated 2022).
Like-named read-outs stand apart in the source and are kept apart here.

How the values were obtained:
Assay type in all cases: cell-based
[1] = tested on: DU145 prostate cancer cell line; assay: MTS cell viability assay, DU145; conditions: for Cell viability at 10 μM (% control) DU145 / Cell viability (% control) DU145 1 μM / Cell viability (% control) DU145 10 μM: 48 h; for Cell viability at 10 μM (% control) DU145: MTS (Table 2); for Cell viability (% control) DU145 1 μM / Cell viability (% control) DU145 10 μM / IC50: MTS; for IC50: DU145, 48 h, read-out: IC50 values (μM) against prostate cancer and melanoma DU145 (prostate cancer)
From the text: (§1) To determine if novel synthetic thioindirubins have antitumor activities, we performed an MTS cell viability assay. Initially, we screened them at […] final concentration with A2058 melanoma and DU145 prostate cancer cell lines. Then, compound 9b and compound 7e were selected to determine IC50 values against prostate cancer, melanoma and lung cancer cells, including DU145, A2058, A549, H513, H2461, H358, DMS114, H2596, DMS273, H69, H526 and DMS114 cell lines. For the viability assay, 5000 cells/well were seeded in 96-well plates, incubated overnight at 37° C. in 5% CO2 and then exposed to […] of compounds or in a dose-dependent manner for 48 h. After 48 h treatment with compounds, MTS dye (20 μL/well) was added to 96-well plates. Viable cell numbers were determined by tetrazolium conversion to its formazan dye. Absorbance was measured at 490 nm using the BMG LABTECH plate reader. Dimethyl sulfoxide (DMSO) was used as the vehicle control. Each experiment was conducted in triplicate. IC50 values were determined using CalcuSyn software (Biosoft).

A2058 melanoma cell line = assay: MTS cell viability assay, A2058; conditions: for Cell viability at 10 μM (% control) A2058 / Cell viability (% control) A2058 1 μM / Cell viability (% control) A2058 10 μM: 48 h; for Cell viability at 10 μM (% control) A2058: MTS (Table 2); for Cell viability (% control) A2058 1 μM / Cell viability (% control) A2058 10 μM / IC50: MTS; for IC50: A2058, 48 h, read-out: IC50 values (μM) against prostate cancer and melanoma A2058 (melanoma)
From the text: as §1

[2] = tested on: DMS114 small lung cancer cell line; assay: MTS cell viability assay, DMS114; conditions: read-out: IC50 values (μM) against small lung cancer DMS114
From the text: as §1

[3] = tested on: H2596 non-small lung cancer cell line; assay: MTS cell viability assay, H2596; conditions: H2596, 48 h, read-out: IC50 values (μM) against non-small lung cancer H2596
From the text: as §1

[4] = tested on: H69 small lung cancer cell line; assay: MTS cell viability assay, H69; conditions: H69, 48 h, read-out: IC50 values (μM) against small lung cancer H69
From the text: as §1

[5] = tested on: A549 non-small lung cancer cell line; assay: MTS cell viability assay, A549; conditions: A549, 48 h, read-out: IC50 values (μM) against non-small lung cancer A549
From the text: as §1

[6] = tested on: H513 non-small lung cancer cell line; assay: MTS cell viability assay, H513; conditions: H513, 48 h, read-out: IC50 values (μM) against non-small lung cancer H513
From the text: as §1

[7] = tested on: H526 small lung cancer cell line; assay: MTS cell viability assay, H526; conditions: read-out: IC50 values (μM) against small lung cancer H526
From the text: as §1

[8] = tested on: H2461 non-small lung cancer cell line; assay: MTS cell viability assay, H2461; conditions: H2461, 48 h, read-out: IC50 values (μM) against non-small lung cancer H2461
From the text: as §1

[9] = tested on: DMS273 small lung cancer cell line; assay: MTS cell viability assay, DMS273; conditions: read-out: IC50 values (μM) against small lung cancer DMS273
From the text: as §1

[10] = tested on: H358 non-small lung cancer cell line; assay: MTS cell viability assay, H358; conditions: read-out: IC50 values (μM) against non-small lung cancer H358
From the text: as §1

[11] = tested on: lung cancer, prostate cancer and melanoma cell lines; assay: MTS cell viability assay, cancer cell line panel (summary statement); conditions: some cell lines, not specified; read-out: IC50 against some cell lines (antitumor activities)
Description: IC50 values (μM) of compound 9b were determined using lung cancer cell lines including non-small lung cancer cell lines (Table 3: A549, H513, H2461, H358, ad H2596) and small lung cancer cell lines (Table 4: DMS273, H69, H526, and DMS114), prostate cancer (Table 5: DU145), melanoma (Table 5: A2058).
as §1

Compound	Cell viability (% control) DU145 1 μM [1]	Cell viability (% control) DU145 10 μM ([1]; DU145, 10 μM)	Cell viability (% control) A2058 1 μM (A2058 melanoma cell line)	Cell viability (% control) A2058 10 μM (A2058 melanoma cell line; A2058, 10 μM)	also measured
O=C1Nc2ccccc2/C1=C1/Sc2ccccc2/C1=N\OCCN1CCNCC1 [Compound 9a, (2′Z,3′E)-Thioindirubin-3′-[O-(2-(piperazin-1-yl)ethyl)]oxime]					Cell viability at 10 μM (% control) DU145 ([1]; DU145, 10 μM): 82 % control; Cell viability at 10 μM (% control) A2058 (A2058 melanoma cell line; A2058, 10 μM): 91 % control
O=C1Sc2ccccc2/C1=C1/Nc2cc(Cl)ccc2/C1=N\O [Compound 7c, (2′Z,3′E)-6′-Chlorothioindirubin-3′-oxime]	>100 % control	33 % control	86 % control	27 % control	
COC(=O)c1ccc2c(c1)C(=N\O)/C(=C1/C(=O)Nc3ccccc31)S2 [Compound 7e, (2′Z,3′E)-5′-(Methoxycarbonyl)thioindirubin-3′-oxime]	>100 % control	88 % control	90 % control	68 % control	IC50 [1]: > 10 µM; IC50 ([2]; DMS114, 48 h): > 10 µM; IC50 [3]: > 10 µM; IC50 [4]: > 10 µM; IC50 [5]: > 10 µM; IC50 [6]: > 10 µM; IC50 ([7]; H526, 48 h): > 10 µM; IC50 (A2058 melanoma cell line): > 10 µM; IC50 [8]: > 10 µM; IC50 ([9]; DMS273, 48 h): > 10 µM; IC50 ([10]; H358, 48 h): 7.7 µM
Cc1ccc2c(c1)C(=O)/C(=C1/C(=O)Nc3ccccc31)S2 [Compound 6g, (2′Z)-5′-Methylthioindirubin]	94 % control	>100 % control	>100 % control	97 % control	
Cc1ccc2c(c1)C(=N\O)/C(=C1/C(=O)Nc3ccccc31)S2 [Compound 7g, (2′Z,3′E)-5′-Methylthioindirubin-3′-oxime]	88 % control	79 % control	84 % control	88 % control	
O=C1Sc2ccccc2/C1=C1/Nc2cc(Cl)ccc2C1=O [Compound 6c, (2′Z)-6′-Chlorothioindirubin]	80 % control	82 % control	84 % control	96 % control	
N#Cc1ccc2c(c1)C(=O)/C(=C1/C(=O)Sc3ccccc31)N2 [Compound 6d, (2′Z)-5′-Cyanothioindirubin]	>100 % control	95 % control	95 % control	87 % control	
COC(=O)c1ccc2c(c1)NC(=C1\C(=O)Sc3ccccc31)/C2=N/O [Compound 7f, (2′Z,3′E)-6′-(Methoxycarbonyl)thioindirubin-3′-oxime]	>100 % control	>100 % control	92 % control	>100 % control	
COC(=O)c1ccc2c(c1)C(=N\OCCN1CCOCC1)/C(=C1/C(=O)Nc3ccccc31)S2 [Compound 9c, (2′Z,3′E)-5′-(Methoxycarbonyl)thioindirubin-3′-[O-(2-(morpholino)ethyl)]oxime]					Cell viability at 10 μM (% control) DU145 ([1]; DU145, 10 μM): 101 % control; Cell viability at 10 μM (% control) A2058 (A2058 melanoma cell line; A2058, 10 μM): 70 % control
COC(=O)c1ccc2c(c1)C(=O)/C(=C1/C(=O)Sc3ccccc31)N2 [Compound 6e, (2′Z)-5′-(Methoxycarbonyl)thioindirubin]	>100 % control	>100 % control	92 % control	94 % control	
COC(=O)c1ccc2c(c1)C(=N\OCCN1CCNCC1)/C(=C1/C(=O)Sc3ccccc31)N2 [Compound 9b, (2′Z,3′E)-5′-(Methoxycarbonyl)thioindirubin-3′-[O-(2-(piperazin-1-yl)ethyl)]oxime]					viabilities of these cells at 10 μM concentration (DU145), in words ([1]; DU145, 10 μM): extremely reduced viabilities; Cell viability at 10 μM (% control) DU145 ([1]; DU145, 10 μM): 17 % control; IC50 ([1]; Homo sapiens, DU-145): 2.53 µM; IC50 ([2]; Homo sapiens, DMS-114, DMS114, 48 h): 1.13 µM; IC50 [3]: 1.02 µM; IC50 [4]: 0.78 µM; IC50 ([5]; Homo sapiens): 4.6 µM; IC50 [6]: 1.6 µM; IC50 ([7]; Homo sapiens, NCI-H526, H526, 48 h): 1.7 µM; viabilities of these cells at 10 μM concentration (A2058), in words (A2058 melanoma cell line; A2058, 10 μM): extremely reduced viabilities; Cell viability at 10 μM (% control) A2058 (A2058 melanoma cell line; A2058, 10 μM): 8 % control; IC50 (A2058 melanoma cell line; Homo sapiens): 1.07 µM; IC50 [8]: 1 µM; IC50 ([9]; Homo sapiens, DMS-273, DMS273, 48 h): 6.1 µM; IC50 [11]: ~1000 nM; IC50 ([10]; Homo sapiens, NCI-H358, H358, 48 h): 2.4 µM
O=C1Nc2ccccc2/C1=C1/Sc2ccccc2C1=O [Compound 6a, (2′Z)-Thioindirubin]	>100 % control	90 % control	99 % control	77 % control	
O=C1Sc2ccccc2/C1=C1/Nc2ccc(Br)cc2C1=O [Compound 6b, (2′Z)-5′-Bromothioindirubin]	>100 % control	>100 % control	97 % control	100 % control	
COC(=O)c1ccc2c(c1)S/C(=C1\C(=O)Nc3ccccc31)C2=O [Compound 6f, (2′Z)-6′-(Methoxycarbonyl)thioindirubin]	99 % control	93 % control	93 % control	>100 % control	
N#Cc1ccc2c(c1)C(=N\O)/C(=C1/C(=O)Nc3ccccc31)S2 [Compound 7d, (2′Z,3′E)-5′-Cyanothioindirubin-3′-oxime]	>100 % control	93 % control	89 % control	99 % control	
